Literature values in EP3964225A1 (priority 2020, dated 2022).

Test system: B cell growth
Details: eight p17 peptides tested

GARASVLSGGELDRWEKIRL [peptide F1, p17-derived peptide, aminoacids 2 to 21 of p17]
cell growth promoting activity: the only one endowed with cell growth promoting activity
